Assay results reported in patent US20060062865A1, “Tyrosinase inhibitor and method for preparation” (priority 2004, published 2006).

System: mushroom tyrosinase
Assay: Mushroom tyrosinase in vitro enzyme assay (absorbance at 492 nm)
Type: biochemical
Conditions: in vitro tyrosinase (mushroom) enzyme activity
Experimental: Enzyme assay. The mushroom tyrosinase was used for the bioassay. It was purchased from Sigma Chemical Co. (St. Louis, Mo.). The assay was performed by adding 200 microliters of reaction cocktail (mixture of potassium phosphate buffer 50 mM, pH 6.5, 10 ml; 1 mM tyrosine solution, 10 ml and deionized water, 9 ml) and 10 microliters of tested extract dissolved in ethanol at concentration of 1 mg/ml followed by 10 microliters of tyrosinase (1000 units/ml) to 96-well plate. After 2 min incubation at room temperature, the initial absorbance was read at 492 nm on the plate reader. Final absorbance values were read after 10 minutes. The enzyme activity was calculated from the differential values for absorbance and then converted into inhibitory activity. Kojic acid was used as standard at a concentration of 1 mg/ml dissolved in 95% ethanol.

## O=c1cc(CO)occ1O [Kojic acid]
Sample 1 mg/ml in ethanol, tyrosine substrate, Table 1 experiment
  Inhibition at 1 mg/ml: 88%
Sample 1 mg/ml, extracts of different plant parts, Table 2 experiment
  Inhibition at 1 mg/ml: 86%
